The source of these data is patent US20070185150A1, “Therapeutic methods” (priority 2005, published 2007).

A short description of data set [1]: Additional clinical studies of oral AP23573 on QD×5 schedule: tolerability. It counts as in vivo. On the procedure: (§1) Additional clinical studies of AP23573 were conducted using a QD×5 dosing schedule for the delivery of 30, 40 or 50 mg of AP23573/day. A set of patients receiving the 30 mg and 50 mg doses were also given a loading dose on the first day of each week, which doubled the dose that day to 60 and 100 mg, respectively.
(§2) Methods: In a Phase 1/2a trial of single-agent oral AP23573, 17 patients, 9 of whom are sarcoma patients, were studied at the chosen dose and schedule (40 mg QD×5). In addition, of 7 patients who began dosing at 50 mg QD×5, 4 patients (2 of whom are sarcoma patients) underwent dose reduction to 40 mg. Twenty-one patients, therefore, received 40 mg QD×5, of whom 11 are sarcoma patients.
(§3) In another QD×5 study in which the dose on day 1 of each week was doubled (to comprise a loading dose), 7 patients (6 sarcoma patients) received doses of 60, 30, 30, 30 and 30 mg over each week (i.e., 30 mg QD×5, with the dose on day 1 doubled). Five other patients (2 sarcoma patients) received 50 mg QD×5, with the dose on day 1 doubled to 100 mg.
(§4) Overall, 36 patients were dosed on a QD×5 schedule, of whom 12 received loading doses on day 1 of each week.

In a further data set the test system is sarcoma and other tumors. The data set is described as follows: Additional clinical studies of oral AP23573 on QD×5 schedule: anti-tumor activity (Clinical Benefit Response). To be noted: QD×5 schedules. The data set is classed as in vivo, patients. Here is the method:
as §1, §2, §3, §4

A short description of data set [2]: Phase I trial of oral AP23573: whole blood PK assessment. The data set is classed as in vivo, patients. As to conditions: three schedules, 20 mg/day, Day 1 of Cycle 1, preliminary PK analysis. On the procedure:
(§5) Methods: Eligible patients (in cohorts of at least 3 patients) initially are randomized at the same flat, fixed starting dose of 20 mg/day into one of three 28-day dosing schedules, i.e. once daily continuous dosing for 4 days every week (QD×4), 21 of 28 days (QD×21), or all 28 days (QD×28). The subsequent dose level is determined based on review of safety and tolerability during Cycle 1 and enrollment for each schedule proceeds independently. Antitumor activity is assessed every 2 cycles. Whole blood is collected for PK assessment and peripheral blood mononuclear cells collected for PD assessment of the levels of phosphorylated 4E-BP1, a downstream target of mTOR.

Data set [3] in a line: Phase I dose escalation trial of oral AP23573: safety, tolerability and maximum tolerated dose. The data set is classed as in vivo, patients.
Source text: Background: In phase I clinical trials with an intravenous (IV) formulation of the mTOR inhibitor, AP23573, the drug was well-tolerated and active in a broad range of cancers. This trial is undertaken to assess the safety, tolerability and maximum tolerated dose (MTD) of an orally administered dosage form of AP23573. Secondary objectives include characterization of the pharmacokinetic (PK) and pharmacodynamic (PD) profiles of AP23573, as well as antitumor activity.
as §5

Data set [4] deals with phosphorylated 4E-BP1, a downstream target of mTOR. Put plainly: Phase I trial of oral AP23573: PD assessment of phosphorylated 4E-BP1 levels in peripheral blood mononuclear cells. It counts as in vivo, patients. Here is the method: as §5
For data set [5], the system named is refractory or advanced malignancies. The data set is described as follows: Phase I trial of oral AP23573: antitumor activity assessed every 2 cycles. The data set is classed as in vivo, patients. Here is the method:
as §5

`CO[C@H]1C[C@@H]2CC[C@@H](C)[C@@](O)(O2)C(=O)C(=O)N2CCCC[C@H]2C(=O)O[C@H]([C@H](C)C[C@@H]2CC[C@@H](OP(C)(C)=O)[C@H](OC)C2)CC(=O)[C@H](C)/C=C(\C)[C@@H](O)[C@@H](OC)C(=O)[C@H](C)C[C@H](C)/C=C/C=C/C=C/1C` [AP23573]: in data set [1] (40 mg QD×5), the side-effects entry was “generally mild or moderate and manageable”. The “tolerability of dose level” value in data set [1] (50 mg QD×5 with the dose on day 1 doubled to 100 mg) is “exceed the maximum tolerated dose”. Besides, the “evaluable sarcoma patients that were CBRs” value with sarcoma and other tumors is recorded as 43%. Also, in the data set with sarcoma and other tumors (of the 26 evaluable patients), the “patients achieving a Clinical Benefit Response (CBR)” value is “Seven”. The Cmax range in data set [2] lay in the range of 77 to 163 ng/mL. Also, the “median Cmax” value in data set [2] came to 98.5 ng/mL. Further, the “dose-limiting toxicity (DLT)” value is “no dose-limiting toxicity (DLT) was reported” in data set [3] (QD×4 20 mg/day cohort); “no DLTs” in data set [3] (QD×4 30 mg/day schedule); “severe stomatitis and fatigue” in data set [3] (QD×21 cohort, 20 mg/day); “severe stomatitis and fatigue” in data set [3] (QD×28 cohort, 20 mg/day). Further, the side effects result in data set [3] (QD×4 60 and 70 mg/day cohort) is recorded as “side effects were reported”. Moreover, the “maximum tolerated daily dose” value in data set [3] (QD×4 schedule) was 50 mg/day; in data set [3] (QD×21 schedule) it was 10 mg/day; in data set [3] (QD×28 schedule), 15 mg/day. Besides, the “severity of adverse events related to AP23573 during Cycle 1” value in data set [3] (three schedules) is listed as “mild or moderate in severity, reversible”. For the same compound, in data set [3] (three schedules, 10 to 30 mg/day), the “adverse events related to AP23573 during Cycle 1 in at least 2 patients” value was “mucositis, fatigue, rash, diarrhea, anorexia, and nausea”. For the same compound, the “reduction of phosphorylated 4E-BP1 levels” value in data set [4] (1 day after dosing) was more than 80%. In addition, in data set [4] (during the dosing period), the “phosphorylated 4E-BP1 levels during the dosing period” value is reported as “remain reduced during the dosing period”. Also, the “antitumor activity (decrease)” value in data set [5] (patient with metastatic breast carcinoma, qd×4, 20 mg/day cohort) is 22%; in data set [5] (patient with metastatic renal cell carcinoma, qd×21, 20 mg/day cohort) it was 21%. The disease status result in data set [5] (patient with soft tissue sarcoma, QD×4, 20 mg/day cohort, after 2 cycles) is reported as “stable disease”.
